Measured values: US20090068746A1, “METHOD FOR MEASURING INTERACTION BETWEEN PHYSIOLOGICALLY ACTIVE SUBSTANCE AND TEST SUBSTANCE” (FUJIFILM Corporation, priority 2007, published 2009)

Tested on: Carbonic Anhydrase (CA)
Test: Surface plasmon resonance binding of compound to biotinylated CA-immobilized substrate
Details: for Binding signal (binding observed or not) / Amount of 100 nM Hydrochlorothiazide bound: 100 nM in 1×PBS (pH 7.4); for Binding signal (binding observed or not): all the substrates; for Binding activity / Mean binding activity: 100 nM; for Binding activity: one-to-one binding assumed, molecular weight conversion; for Mean binding activity: mean of the three substrates (7450, 3400, 1600 RV CA)

Compound | Binding signal (binding observed or not) | Amount of 100 nM Hydrochlorothiazide bound (amount of CA immobilized 1600 RV, Comparative example (without calibration)) [RV] | Amount of 100 nM Hydrochlorothiazide bound (amount of CA immobilized 1600 RV, Example (with calibration of baseline, third curve approximation)) [RV] | Amount of 100 nM Hydrochlorothiazide bound (amount of CA immobilized 3400 RV, Example (with calibration of baseline, third curve approximation)) [RV] | Amount of 100 nM Hydrochlorothiazide bound (amount of CA immobilized 7450 RV, Comparative example (without calibration)) [RV] | Amount of 100 nM Hydrochlorothiazide bound (amount of CA immobilized 7450 RV, Example (with calibration of baseline, third curve approximation)) [RV] | Binding activity (CA immobilized 1600 RV, with calibration) [%] | Binding activity (CA immobilized 1600 RV, without calibration) [%] | Binding activity (CA immobilized 3400 RV, with calibration) [%] | Binding activity (CA immobilized 3400 RV, without calibration) [%] | Binding activity (CA immobilized 7450 RV, with calibration) [%] | Binding activity (CA immobilized 7450 RV, without calibration) [%] | Mean binding activity (with calibration) [%] | Mean binding activity (without calibration) [%]
O=C(O)c1cccnc1 [Nicotinic acid] | no binding was observed | – | – | – | – | – | – | – | – | – | – | – | – | –
NS(=O)(=O)c1cc2c(cc1Cl)NCNS2(=O)=O [Hydrochlorothiazide] | binding signal was observed | 7.1 | 7.3 | 16.3 | 25.4 | 31.7 | 45.9 | 44.7 | 48.2 | 40.6 | 42.8 | 34.4 | 45.6 | 39.9
